Twelve molecules from ChEMBL document CHEMBL1269000, “Synthesis and biological evaluation of [D-lysine]8cyclosporin A analogs as potential anti-HCV agents” (Bioorg Med Chem Lett, 2010) can be followed below.

Series [1] deals with Peptidyl-prolyl cis-trans isomerase B (Homo sapiens, UniProt P23284). Description: Binding affinity to cyclophilin B by ELISA. (In general: An ELISA detects its analyte on a solid surface through an enzyme-linked reagent.)
Another series has as its system Jurkat. Description: Immunosuppressive activity against human Jurkat cells assessed as inhibition of phytohemagglutinin-M/phorbol myristate acetate-induced IL2 production. In kind it is cell-based.
The next series has as its system Hepatitis C virus. Put plainly: Antiviral activity against HCV after 72 hrs by stable luciferase reporter gene assay. In kind it is functional, organism-based, Hepacivirus hominis. A general note: A reporter such as luciferase makes a cellular process visible.
Series [2] has as its target Peptidyl-prolyl cis-trans isomerase A (Homo sapiens, UniProt P62937). Description: Binding affinity to cyclophilin A by ELISA.
Series [3] in a line: Cytotoxicity against human HuH7 cells assessed as release of lactate dehydrogenase. The series is classed as cell-based, Huh-7. As to conditions: for IC50: Homo sapiens, Huh-7; for IC90: human, HuH7 cells.

Sequence of Peptidyl-prolyl cis-trans isomerase B (P23284 whole entry): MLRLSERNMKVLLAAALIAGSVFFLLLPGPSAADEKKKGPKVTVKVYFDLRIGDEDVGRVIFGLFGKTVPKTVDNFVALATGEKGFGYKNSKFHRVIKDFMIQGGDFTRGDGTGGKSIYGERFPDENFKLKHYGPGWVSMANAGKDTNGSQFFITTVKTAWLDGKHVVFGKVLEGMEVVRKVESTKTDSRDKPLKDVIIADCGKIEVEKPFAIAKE
Sequence of Peptidyl-prolyl cis-trans isomerase A (P62937 whole entry): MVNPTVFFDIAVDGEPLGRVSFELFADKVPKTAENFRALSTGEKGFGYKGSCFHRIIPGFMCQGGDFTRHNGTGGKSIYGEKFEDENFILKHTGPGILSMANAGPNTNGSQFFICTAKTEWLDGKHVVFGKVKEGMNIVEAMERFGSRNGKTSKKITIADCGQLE

For orientation: IC50 means the concentration that gives 50% inhibition. By EC50 is commonly meant the concentration needed to bring the measured effect to its halfway point. A word on the EC90: it is the concentration needed for an effect of 90%. A word on the IC90: it is the concentration at which the effect reaches the 90% level. For `C/C=C/C[C@@H](C)[C@@H](O)[C@H]1C(=O)N[C@@H](CC)C(=O)N(C)CC(=O)N(C)[C@@H](CC(C)C)C(=O)N[C@@H](C(C)C)C(=O)N(C)[C@@H](CC(C)C)C(=O)N[C@@H](C)C(=O)N[C@H](CNC(=O)OC(C)(C)C)C(=O)N(C)[C@@H](CC(C)C)C(=O)N(C)[C@@H](CC(C)C)C(=O)N(C)[C@@H](C(C)C)C(=O)N1C`, the figures for the 50% inhibitory concentration (IC50) in series [1], in series [2] and in series [3] were 0.0668 µM, 0.0835 µM and 1.72 µM, respectively. The concentration for a half-maximal effect (EC50) with Jurkat came to 0.05 µM; with Hepatitis C virus, 0.2 µM. For the same molecule, the concentration for an effect of 90% (EC90) in the series on Hepatitis C virus was 0.48 µM. Also, the concentration for an effect of 90% (IC90) in series [3] is over 10 µM.

On to `C/C=C/C[C@@H](C)[C@@H](O)[C@H]1C(=O)N[C@@H](CC)C(=O)N(C)CC(=O)N(C)[C@@H](CC(C)C)C(=O)N[C@@H](C(C)C)C(=O)N(C)[C@@H](CC(C)C)C(=O)N[C@@H](C)C(=O)N[C@H](CCNC(=O)C(C)(C)C)C(=O)N(C)[C@@H](CC(C)C)C(=O)N(C)[C@@H](CC(C)C)C(=O)N(C)[C@@H](C(C)C)C(=O)N1C`, for which the IC50 worked out at 0.0261 µM in series [1], 0.0312 µM in series [2] and 2.02 µM in series [3]. Also, the 50% effective concentration (EC50) stood at 0.022 µM in the series on Jurkat and 0.14 µM in the series on Hepatitis C virus. For the same molecule, the 90% effect level in the series with Hepatitis C virus (EC90) was put at 0.36 µM. In addition, in series [3], the IC90 was over 10 µM.

On to `C/C=C/C[C@@H](C)[C@@H](O)[C@H]1C(=O)N[C@@H](CC)C(=O)N(C)CC(=O)N(C)[C@@H](CC(C)C)C(=O)N[C@@H](C(C)C)C(=O)N(C)[C@@H](CC(C)C)C(=O)N[C@@H](C)C(=O)N[C@H](CCCNC(=O)C(C)(C)C)C(=O)N(C)[C@@H](CC(C)C)C(=O)N(C)[C@@H](CC(C)C)C(=O)N(C)[C@@H](C(C)C)C(=O)N1C`, for which the IC50 in series [1] worked out at 0.0305 µM; in series [2] it was 0.0267 µM; in series [3] it was 2.07 µM. Moreover, the EC50 in the series on Jurkat is 0.021 µM; in the series on Hepatitis C virus, 0.12 µM. In the series on Hepatitis C virus, the EC90 came out at 0.31 µM. Further, the concentration for an effect of 90% (IC90) in series [3] was over 10 µM.

As to `C/C=C/C[C@@H](C)[C@@H](O)[C@H]1C(=O)N[C@@H](CC)C(=O)N(C)CC(=O)N(C)[C@@H](CC(C)C)C(=O)N[C@@H](C(C)C)C(=O)N(C)[C@@H](CC(C)C)C(=O)N[C@@H](C)C(=O)N[C@H](CCCCNC(=O)C(C)(C)C)C(=O)N(C)[C@@H](CC(C)C)C(=O)N(C)[C@@H](CC(C)C)C(=O)N(C)[C@@H](C(C)C)C(=O)N1C`, the half-inhibitory concentration (IC50) is 0.0206 µM in series [1], 0.0228 µM in series [2] and 2.56 µM in series [3]. In addition, the figures for the EC50 in the series with Jurkat and in the series on Hepatitis C virus were 0.121 µM and 0.16 µM, respectively. The molecule also had an EC90 in the series with Hepatitis C virus of 0.3 µM. The IC90 in series [3] was over 10 µM.

`C/C=C/C[C@@H](C)[C@@H](O)[C@H]1C(=O)N[C@@H](CC)C(=O)N(C)CC(=O)N(C)[C@@H](CC(C)C)C(=O)N[C@@H](C(C)C)C(=O)N(C)[C@@H](CC(C)C)C(=O)N[C@@H](C)C(=O)N[C@H](CC#N)C(=O)N(C)[C@@H](CC(C)C)C(=O)N(C)[C@@H](CC(C)C)C(=O)N(C)[C@@H](C(C)C)C(=O)N1C`: the half-inhibitory concentration (IC50) worked out at 0.00945 µM in series [1], 0.00912 µM in series [2] and 2.82 µM in series [3]. In addition, the concentration giving a half-maximal response (EC50) in the series with Jurkat is 0.0051 µM; with Hepatitis C virus it was 0.04 µM. Further, the EC90 in the series with Hepatitis C virus was 0.14 µM. The 90% effect concentration (IC90) in series [3] is over 10 µM.

As to `C/C=C/C[C@@H](C)[C@@H](O)[C@H]1C(=O)N[C@@H](CC)C(=O)N(C)CC(=O)N(C)[C@@H](CC(C)C)C(=O)N[C@@H](C(C)C)C(=O)N(C)[C@@H](CC(C)C)C(=O)N[C@@H](C)C(=O)N[C@H](CCC#N)C(=O)N(C)[C@@H](CC(C)C)C(=O)N(C)[C@@H](CC(C)C)C(=O)N(C)[C@@H](C(C)C)C(=O)N1C`, the IC50 in series [1] was found to be 0.0242 µM; in series [2], 0.023 µM; in series [3], 2.37 µM. In addition, the concentration for a half-maximal effect (EC50) in the series with Jurkat was found to be 0.012 µM; in the series on Hepatitis C virus, 0.1 µM. Also, the EC90 with Hepatitis C virus worked out at 0.27 µM. Also, in series [3], the 90% effect concentration (IC90) was over 10 µM.

Turning to `C/C=C/C[C@@H](C)[C@@H](O)[C@H]1C(=O)N[C@@H](CC)C(=O)N(C)CC(=O)N(C)[C@@H](CC(C)C)C(=O)N[C@@H](C(C)C)C(=O)N(C)[C@@H](CC(C)C)C(=O)N[C@@H](C)C(=O)N[C@H](CN)C(=O)N(C)[C@@H](CC(C)C)C(=O)N(C)[C@@H](CC(C)C)C(=O)N(C)[C@@H](C(C)C)C(=O)N1C`, the IC50 in series [1] was 0.0797 µM; in series [2], 0.103 µM; in series [3] it was 4.61 µM. Further, the concentration for a half-maximal effect (EC50) in the series with Jurkat stood at 0.013 µM; in the series with Hepatitis C virus it was 0.3 µM. Besides, the concentration for an effect of 90% (EC90) with Hepatitis C virus was found to be 0.82 µM. For the same molecule, the IC90 in series [3] is over 10 µM.

As for `C/C=C/C[C@@H](C)[C@@H](O)[C@H]1C(=O)N[C@@H](CC)C(=O)N(C)CC(=O)N(C)[C@@H](CC(C)C)C(=O)N[C@@H](C(C)C)C(=O)N(C)[C@@H](CC(C)C)C(=O)N[C@@H](C)C(=O)N[C@H](CCN)C(=O)N(C)[C@@H](CC(C)C)C(=O)N(C)[C@@H](CC(C)C)C(=O)N(C)[C@@H](C(C)C)C(=O)N1C`, the 50% inhibitory concentration (IC50) is 0.151 µM in series [1], 0.218 µM in series [2] and 5.3 µM in series [3]. Further, the EC50 with Jurkat stood at 0.09 µM; in the series on Hepatitis C virus it was 0.66 µM. In addition, in the series on Hepatitis C virus, the EC90 came to 2.35 µM. Moreover, in series [3], the IC90 was over 10 µM.

With `C/C=C/C[C@@H](C)[C@@H](O)[C@H]1C(=O)N[C@@H](CC)C(=O)N(C)CC(=O)N(C)[C@@H](CC(C)C)C(=O)N[C@@H](C(C)C)C(=O)N(C)[C@@H](CC(C)C)C(=O)N[C@@H](C)C(=O)N[C@H](CCCN)C(=O)N(C)[C@@H](CC(C)C)C(=O)N(C)[C@@H](CC(C)C)C(=O)N(C)[C@@H](C(C)C)C(=O)N1C`, the IC50 in series [1] was 1.58 µM; in series [2] it was 0.662 µM; in series [3], over 10 µM. For the same molecule, the results for the concentration for a half-maximal effect (EC50) in the series on Jurkat and with Hepatitis C virus were 0.111 µM and 1.89 µM, respectively. In the series on Hepatitis C virus, this molecule registered an EC90 of 6.74 µM. Moreover, in series [3], the 90% effect concentration (IC90) is over 10 µM.

Take `C/C=C/C[C@@H](C)[C@@H](O)[C@H]1C(=O)N[C@@H](CC)C(=O)N(C)CC(=O)N(C)[C@@H](CC(C)C)C(=O)N[C@@H](C(C)C)C(=O)N(C)[C@@H](CC(C)C)C(=O)N[C@@H](C)C(=O)N[C@H](CCCCN)C(=O)N(C)[C@@H](CC(C)C)C(=O)N(C)[C@@H](CC(C)C)C(=O)N(C)[C@@H](C(C)C)C(=O)N1C`: the values for the IC50 in series [1], in series [2] and in series [3] were 0.0127 µM, 0.0111 µM and over 10 µM, respectively. The concentration for a half-maximal effect (EC50) worked out at 0.094 µM in the series with Jurkat and 1 µM in the series with Hepatitis C virus. Besides, the EC90 in the series with Hepatitis C virus was found to be 2.85 µM. Besides, the concentration for an effect of 90% (IC90) in series [3] is over 10 µM.

Turning to `C/C=C/C[C@@H](C)[C@@H](O)[C@H]1C(=O)N[C@@H](CC)C(=O)N(C)CC(=O)N(C)[C@@H](CC(C)C)C(=O)N[C@@H](C(C)C)C(=O)N(C)[C@@H](CC(C)C)C(=O)N[C@@H](C)C(=O)N[C@H](C)C(=O)N(C)[C@@H](CC(C)C)C(=O)N(C)[C@@H](CC(C)C)C(=O)N(C)[C@@H](C(C)C)C(=O)N1C` [CYCLOSPORINE], the EC50 in the series on Jurkat came out at 0.0067 µM. In the series with Hepatitis C virus, this molecule gave an EC50 of 0.37 µM and an EC90 of 0.91 µM.

On to `C/C=C/C[C@@H](C)[C@@H](O)[C@H]1C(=O)N[C@@H](CC)C(=O)N(C)[C@H](SCCN(C)C)C(=O)N(C)[C@@H](CC(C)(C)O)C(=O)N[C@@H](C(C)C)C(=O)N(C)[C@@H](CC(C)C)C(=O)N[C@@H](C)C(=O)N[C@H](C)C(=O)N(C)[C@@H](CC(C)C)C(=O)N(C)[C@@H](CC(C)C)C(=O)N(C)[C@@H](C(C)C)C(=O)N1C` [SCY 635], for which the IC50 in series [1] is 0.0103 µM; in series [3], over 10 µM. The results for the EC50 in the series on Jurkat and in the series with Hepatitis C virus were 4.21 µM and 0.05 µM, respectively. Also, the EC90 in the series on Hepatitis C virus came to 0.24 µM. Further, in series [3], the IC90 is over 10 µM.
